Reference: ChEMBL document CHEMBL3400143, “Discovery and hit-to-lead optimization of 2,6-diaminopyrimidine inhibitors of interleukin-1 receptor-associated kinase 4” (Bioorg Med Chem Lett, 2015)
Calls of active or inactive are those of the source. The calls are words filed in the database; no cut-off is given here.

Experiments:
[1] = target: T1, Interleukin-1 receptor-associated kinase 4 (Homo sapiens, UniProt Q9NWZ3); test: Inhibition of N-terminal GST tagged human recombinant full-length IRAK4 expressed in Sf9 insect cells assessed as reduction in substrate phosphorylation using RP7030 peptide substrate and ATP incubated for 30 mins fluorescence polarization assay
T1 sequence (Q9NWZ3 whole entry): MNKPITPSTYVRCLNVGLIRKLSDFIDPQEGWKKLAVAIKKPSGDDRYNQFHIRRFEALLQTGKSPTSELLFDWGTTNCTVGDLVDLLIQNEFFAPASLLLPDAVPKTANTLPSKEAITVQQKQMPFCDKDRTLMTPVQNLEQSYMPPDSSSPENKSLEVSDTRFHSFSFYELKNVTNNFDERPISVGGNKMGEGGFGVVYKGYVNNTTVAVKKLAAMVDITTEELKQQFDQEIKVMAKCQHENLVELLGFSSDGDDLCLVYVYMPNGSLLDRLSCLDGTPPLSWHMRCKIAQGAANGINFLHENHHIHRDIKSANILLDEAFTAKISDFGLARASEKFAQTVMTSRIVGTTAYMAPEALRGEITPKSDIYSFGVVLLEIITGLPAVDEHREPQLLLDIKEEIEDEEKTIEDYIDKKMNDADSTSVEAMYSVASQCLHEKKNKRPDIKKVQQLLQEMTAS

[2] = target: Dual specificity protein kinase CLK4 (Homo sapiens) (UniProt Q9HAZ1); test: Inhibition of CLK4 (unknown origin)
[3] = target: Receptor-type tyrosine-protein kinase FLT3 (Homo sapiens) (UniProt P36888); test: Inhibition of FLT3 (unknown origin)
[4] = target: Mitogen-activated protein kinase kinase kinase kinase 4 (Homo sapiens) (UniProt O95819); test: Inhibition of MAP4K4 (unknown origin)
[5] = target: High affinity nerve growth factor receptor (Homo sapiens) (UniProt P04629); test: Inhibition of TRKA (unknown origin)
[6] = target: BDNF/NT-3 growth factors receptor (Homo sapiens) (UniProt Q16620); test: Inhibition of TRKB (unknown origin)
[7] = target: NT-3 growth factor receptor (Homo sapiens) (UniProt Q16288); test: Inhibition of TRKC (unknown origin)
NT-3 growth factor receptor (Homo sapiens), sequence (Q16288 32-839 limits assumed): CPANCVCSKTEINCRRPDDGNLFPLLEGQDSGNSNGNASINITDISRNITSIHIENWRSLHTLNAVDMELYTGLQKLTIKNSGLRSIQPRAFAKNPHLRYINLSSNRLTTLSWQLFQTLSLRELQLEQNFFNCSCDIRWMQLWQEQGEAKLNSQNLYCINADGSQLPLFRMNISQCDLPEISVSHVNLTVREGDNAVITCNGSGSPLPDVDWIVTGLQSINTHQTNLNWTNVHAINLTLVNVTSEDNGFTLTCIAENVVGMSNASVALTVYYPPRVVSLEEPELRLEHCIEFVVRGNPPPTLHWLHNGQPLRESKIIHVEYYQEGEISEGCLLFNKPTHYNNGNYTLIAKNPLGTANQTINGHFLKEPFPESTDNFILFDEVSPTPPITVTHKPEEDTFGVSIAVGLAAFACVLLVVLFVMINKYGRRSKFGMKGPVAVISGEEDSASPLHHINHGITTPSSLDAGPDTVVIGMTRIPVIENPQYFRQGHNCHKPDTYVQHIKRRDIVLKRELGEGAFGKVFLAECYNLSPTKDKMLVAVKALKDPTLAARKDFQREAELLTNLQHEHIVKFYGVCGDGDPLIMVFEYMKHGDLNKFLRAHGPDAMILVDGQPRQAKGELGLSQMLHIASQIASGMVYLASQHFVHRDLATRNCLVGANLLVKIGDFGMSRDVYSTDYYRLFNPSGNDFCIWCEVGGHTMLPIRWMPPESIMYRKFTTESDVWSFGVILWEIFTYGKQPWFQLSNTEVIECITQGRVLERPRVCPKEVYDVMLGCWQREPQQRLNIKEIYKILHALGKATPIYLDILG

Mitogen-activated protein kinase kinase kinase kinase 4 (Homo sapiens), sequence (O95819 2-1239 limits assumed): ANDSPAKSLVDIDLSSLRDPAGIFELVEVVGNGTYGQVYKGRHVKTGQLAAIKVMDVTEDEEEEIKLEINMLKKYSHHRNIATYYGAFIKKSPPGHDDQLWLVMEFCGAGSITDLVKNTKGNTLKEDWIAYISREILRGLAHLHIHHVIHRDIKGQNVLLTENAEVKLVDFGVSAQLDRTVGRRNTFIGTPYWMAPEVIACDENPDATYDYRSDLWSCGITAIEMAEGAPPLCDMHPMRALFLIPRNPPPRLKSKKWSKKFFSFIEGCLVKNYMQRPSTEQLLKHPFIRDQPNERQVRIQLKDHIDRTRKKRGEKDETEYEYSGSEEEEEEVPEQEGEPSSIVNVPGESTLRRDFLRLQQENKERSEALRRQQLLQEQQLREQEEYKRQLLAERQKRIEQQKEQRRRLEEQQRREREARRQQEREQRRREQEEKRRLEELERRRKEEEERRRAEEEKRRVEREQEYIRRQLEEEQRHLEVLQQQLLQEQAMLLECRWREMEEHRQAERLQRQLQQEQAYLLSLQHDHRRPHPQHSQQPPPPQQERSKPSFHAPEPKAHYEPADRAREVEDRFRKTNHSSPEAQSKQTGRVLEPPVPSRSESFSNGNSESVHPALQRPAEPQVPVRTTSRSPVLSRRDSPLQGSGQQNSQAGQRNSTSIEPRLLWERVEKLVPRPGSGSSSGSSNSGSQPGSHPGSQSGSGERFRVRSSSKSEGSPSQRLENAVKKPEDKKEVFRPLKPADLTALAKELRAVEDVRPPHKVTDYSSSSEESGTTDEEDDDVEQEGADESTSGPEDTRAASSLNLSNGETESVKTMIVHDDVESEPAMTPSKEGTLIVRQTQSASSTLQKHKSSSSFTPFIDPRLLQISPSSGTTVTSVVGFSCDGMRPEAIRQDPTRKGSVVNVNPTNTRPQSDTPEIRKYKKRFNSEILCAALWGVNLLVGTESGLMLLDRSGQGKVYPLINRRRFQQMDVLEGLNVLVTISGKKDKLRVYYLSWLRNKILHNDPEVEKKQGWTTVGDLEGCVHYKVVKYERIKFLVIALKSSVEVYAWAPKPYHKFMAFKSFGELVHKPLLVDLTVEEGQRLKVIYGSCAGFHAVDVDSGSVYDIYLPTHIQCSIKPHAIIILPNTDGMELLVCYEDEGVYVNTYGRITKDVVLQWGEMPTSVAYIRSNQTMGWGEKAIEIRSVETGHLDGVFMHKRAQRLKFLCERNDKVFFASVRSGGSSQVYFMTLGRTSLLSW
Dual specificity protein kinase CLK4 (Homo sapiens), sequence (Q9HAZ1 whole entry, looked up): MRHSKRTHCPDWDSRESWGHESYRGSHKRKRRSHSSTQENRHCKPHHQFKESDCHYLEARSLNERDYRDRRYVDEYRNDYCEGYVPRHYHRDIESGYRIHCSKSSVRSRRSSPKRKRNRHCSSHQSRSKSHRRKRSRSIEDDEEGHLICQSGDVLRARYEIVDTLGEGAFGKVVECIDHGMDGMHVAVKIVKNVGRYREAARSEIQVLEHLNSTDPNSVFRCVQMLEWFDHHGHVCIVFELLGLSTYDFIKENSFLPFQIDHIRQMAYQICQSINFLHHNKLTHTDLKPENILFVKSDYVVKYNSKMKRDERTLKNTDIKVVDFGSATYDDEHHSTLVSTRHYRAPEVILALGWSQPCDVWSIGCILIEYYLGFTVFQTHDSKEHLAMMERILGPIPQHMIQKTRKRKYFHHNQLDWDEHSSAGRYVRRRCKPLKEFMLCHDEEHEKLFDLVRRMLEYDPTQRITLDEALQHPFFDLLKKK
BDNF/NT-3 growth factors receptor (Homo sapiens), sequence (Q16620 32-822 limits assumed): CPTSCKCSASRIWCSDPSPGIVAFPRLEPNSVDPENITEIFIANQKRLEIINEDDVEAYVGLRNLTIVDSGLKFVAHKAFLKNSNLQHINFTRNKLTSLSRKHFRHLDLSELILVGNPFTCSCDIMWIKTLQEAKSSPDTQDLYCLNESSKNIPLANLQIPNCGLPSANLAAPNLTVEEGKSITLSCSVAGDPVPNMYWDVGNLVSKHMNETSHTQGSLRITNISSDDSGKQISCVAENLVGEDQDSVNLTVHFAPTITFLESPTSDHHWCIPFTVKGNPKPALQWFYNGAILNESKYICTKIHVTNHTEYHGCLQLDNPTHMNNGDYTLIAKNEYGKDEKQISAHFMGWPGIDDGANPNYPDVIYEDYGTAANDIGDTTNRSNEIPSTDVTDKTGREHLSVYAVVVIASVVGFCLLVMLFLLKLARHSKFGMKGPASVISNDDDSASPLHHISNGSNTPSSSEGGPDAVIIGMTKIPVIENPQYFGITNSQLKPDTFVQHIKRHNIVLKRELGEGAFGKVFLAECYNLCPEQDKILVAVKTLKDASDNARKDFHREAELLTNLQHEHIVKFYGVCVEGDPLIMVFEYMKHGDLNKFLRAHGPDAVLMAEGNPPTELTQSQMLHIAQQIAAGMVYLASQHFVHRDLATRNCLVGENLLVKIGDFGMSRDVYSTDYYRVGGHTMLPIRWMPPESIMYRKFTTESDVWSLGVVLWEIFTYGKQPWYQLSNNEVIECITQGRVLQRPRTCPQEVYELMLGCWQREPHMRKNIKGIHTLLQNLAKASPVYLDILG
High affinity nerve growth factor receptor (Homo sapiens), sequence (P04629 33-796 limits assumed): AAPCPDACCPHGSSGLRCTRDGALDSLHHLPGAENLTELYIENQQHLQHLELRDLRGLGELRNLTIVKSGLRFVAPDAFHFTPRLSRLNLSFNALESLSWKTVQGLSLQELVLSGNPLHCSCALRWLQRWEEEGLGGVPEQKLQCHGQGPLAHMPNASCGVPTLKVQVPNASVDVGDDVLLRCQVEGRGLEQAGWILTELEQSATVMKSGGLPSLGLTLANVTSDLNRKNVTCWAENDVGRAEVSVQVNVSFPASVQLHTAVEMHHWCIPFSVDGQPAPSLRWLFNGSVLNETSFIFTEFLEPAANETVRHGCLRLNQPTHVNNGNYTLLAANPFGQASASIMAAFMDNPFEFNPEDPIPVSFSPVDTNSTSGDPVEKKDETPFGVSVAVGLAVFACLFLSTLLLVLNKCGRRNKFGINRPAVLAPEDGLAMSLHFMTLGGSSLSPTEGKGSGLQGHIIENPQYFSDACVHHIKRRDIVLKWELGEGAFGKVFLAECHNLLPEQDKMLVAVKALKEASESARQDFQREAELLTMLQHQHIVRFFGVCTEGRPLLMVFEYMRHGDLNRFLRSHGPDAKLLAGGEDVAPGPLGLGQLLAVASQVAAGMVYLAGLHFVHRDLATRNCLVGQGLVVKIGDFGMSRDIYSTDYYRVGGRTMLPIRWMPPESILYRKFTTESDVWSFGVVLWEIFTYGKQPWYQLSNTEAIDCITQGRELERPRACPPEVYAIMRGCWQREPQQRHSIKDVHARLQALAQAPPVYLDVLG
Receptor-type tyrosine-protein kinase FLT3 (Homo sapiens), sequence (P36888 whole entry): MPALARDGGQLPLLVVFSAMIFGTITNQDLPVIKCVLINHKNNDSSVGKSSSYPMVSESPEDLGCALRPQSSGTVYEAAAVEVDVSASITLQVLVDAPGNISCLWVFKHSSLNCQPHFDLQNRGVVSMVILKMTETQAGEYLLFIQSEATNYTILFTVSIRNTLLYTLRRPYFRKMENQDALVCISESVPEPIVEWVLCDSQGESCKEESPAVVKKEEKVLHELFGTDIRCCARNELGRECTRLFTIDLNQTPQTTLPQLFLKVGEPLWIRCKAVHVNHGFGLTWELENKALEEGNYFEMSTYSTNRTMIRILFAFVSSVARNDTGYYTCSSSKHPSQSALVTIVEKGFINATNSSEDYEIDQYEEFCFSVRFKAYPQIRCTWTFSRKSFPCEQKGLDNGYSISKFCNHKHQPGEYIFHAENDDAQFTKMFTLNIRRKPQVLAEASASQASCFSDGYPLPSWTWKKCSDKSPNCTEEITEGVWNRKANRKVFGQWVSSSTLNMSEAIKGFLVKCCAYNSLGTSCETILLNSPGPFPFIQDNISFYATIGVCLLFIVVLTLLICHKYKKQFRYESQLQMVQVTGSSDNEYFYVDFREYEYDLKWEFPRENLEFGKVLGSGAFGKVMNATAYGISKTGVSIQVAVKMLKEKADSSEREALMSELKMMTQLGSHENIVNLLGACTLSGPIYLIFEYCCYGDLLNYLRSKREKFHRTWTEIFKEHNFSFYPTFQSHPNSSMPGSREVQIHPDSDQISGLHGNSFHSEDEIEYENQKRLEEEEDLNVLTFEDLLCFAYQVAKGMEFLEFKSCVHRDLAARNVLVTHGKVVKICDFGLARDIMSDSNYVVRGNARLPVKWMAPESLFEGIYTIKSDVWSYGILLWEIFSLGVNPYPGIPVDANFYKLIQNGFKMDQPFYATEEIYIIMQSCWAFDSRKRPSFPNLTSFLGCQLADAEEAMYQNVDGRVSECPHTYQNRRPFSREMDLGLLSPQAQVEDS

Question: What does the source list for `COCCCNc1ncc(-c2nc3ccccc3s2)c(N[C@@H]2C[C@H](CO)[C@@H](O)[C@H]2O)n1`?
Answer: IC50 [1]: 228 nM; inhibition [2]: Active; inhibition [3]: Active; inhibition [4]: Active; inhibition [5]: Active; inhibition [6]: Active; inhibition [7]: Active

Question: Which results are given for `CCCNc1nc(C)c(-c2nc3ccccc3s2)c(N[C@@H]2C[C@H](CO)[C@@H](O)[C@H]2O)n1`?
Answer: IC50 [1]: 240 nM; inhibition [2]: Active; inhibition [3]: Active; inhibition [4]: Active; inhibition [5]: Active; inhibition [6]: Active; inhibition [7]: Active

Question: Which results are given for `OC[C@H]1C[C@@H](Nc2nc(NC3CCC3)ncc2-c2nc3ccccc3s2)[C@H](O)[C@@H]1O`?
Answer: IC50 [1]: 403 nM; inhibition [2]: Active; inhibition [3]: Active; inhibition [4]: Active; inhibition [5]: Active; inhibition [6]: Active; inhibition [7]: Active

Question: `COc1nc(N)nc(N[C@@H]2C[C@H](CO)[C@@H](O)[C@H]2O)c1-c1nc2ccccc2s1` was tested. Which IC50 [1] did it give?
Answer: > 20000 nM

Question: What about the inhibition [2] of the same compound?
Answer: Active

Question: And the inhibition [3]?
Answer: Active

Question: And the inhibition [4]?
Answer: Active

Question: What about the inhibition [5] of the same compound?
Answer: Active

Question: What about the inhibition [6] of the same compound?
Answer: Active

Question: And the inhibition [7]?
Answer: Active

Question: For `Nc1nc(N[C@@H]2C[C@H](CO)[C@@H](O)[C@H]2O)c(-c2nc3ccccc3s2)c(C(F)(F)F)n1`, which IC50 [1] is on record?
Answer: > 20000 nM

Question: And the inhibition [2]?
Answer: Active

Question: What about the inhibition [3] of the same compound?
Answer: Active

Question: What about the inhibition [4] of the same compound?
Answer: Active

Question: What about the inhibition [5] of the same compound?
Answer: Active

Question: What about the inhibition [6] of the same compound?
Answer: Active

Question: What about the inhibition [7] of the same compound?
Answer: Active

Question: How did the IC50 [1] turn out when `Nc1nc(Cl)c(-c2nc3ccccc3s2)c(N[C@@H]2C[C@H](CO)[C@@H](O)[C@H]2O)n1` was run?
Answer: 170 nM

Question: And the inhibition [2]?
Answer: Active

Question: What about the inhibition [3] of the same compound?
Answer: Active

Question: And the inhibition [4]?
Answer: Active

Question: And the inhibition [5]?
Answer: Active

Question: And the inhibition [6]?
Answer: Active

Question: And the inhibition [7]?
Answer: Active

Question: For `CCc1nc(N)nc(N[C@@H]2C[C@H](CO)[C@@H](O)[C@H]2O)c1-c1nc2ccccc2s1`, which IC50 [1] is on record?
Answer: 6850 nM

Question: What about the inhibition [2] of the same compound?
Answer: Active

Question: What about the inhibition [3] of the same compound?
Answer: Active

Question: What about the inhibition [4] of the same compound?
Answer: Active

Question: What about the inhibition [5] of the same compound?
Answer: Active

Question: What about the inhibition [6] of the same compound?
Answer: Active

Question: What about the inhibition [7] of the same compound?
Answer: Active

Question: For `Nc1nc(N[C@@H]2C[C@H](CO)[C@@H](O)[C@H]2O)c(-c2nc3ccccc3s2)c(C2CC2)n1`, which IC50 [1] is on record?
Answer: > 20000 nM

Question: What about the inhibition [2] of the same compound?
Answer: Active

Question: What about the inhibition [3] of the same compound?
Answer: Active

Question: And the inhibition [4]?
Answer: Active

Question: What about the inhibition [5] of the same compound?
Answer: Active

Question: What about the inhibition [6] of the same compound?
Answer: Active

Question: What about the inhibition [7] of the same compound?
Answer: Active
